ChEMBL document CHEMBL4011590, “Structure-activity relationship studies on 3,5-dinitrophenyl tetrazoles as antitubercular agents” (Eur J Med Chem, 2017)

Tests used:
[1] = tested on: Nakaseomyces glabratus; assay: Antifungal activity against Candida glabrata 20/I after 24 hrs by broth microdilution method; assay type: functional
[2] = tested on: Trichophyton mentagrophytes; assay: Antifungal activity against Trichophyton mentagrophytes 445 after 120 hrs by broth microdilution method; assay type: functional; settings: Trichophyton mentagrophytes, 445, 120 h
[3] = tested on: Pichia kudriavzevii; assay: Antifungal activity against Candida krusei E28 after 24 hrs by broth microdilution method; assay type: functional; settings: E28, 24 h
[4] = tested on: Aspergillus fumigatus; assay: Antifungal activity against Aspergillus fumigatus 231 after 24 hrs by broth microdilution method; assay type: functional; settings: Aspergillus fumigatus, 231, 24 h
[5] = tested on: Lichtheimia corymbifera; assay: Antifungal activity against Absidia corymbifera 272 after 48 hrs by broth microdilution method; assay type: functional; settings: Lichtheimia corymbifera, 272, 48 h
[6] = tested on: Klebsiella pneumoniae; assay: Antibacterial activity against Klebsiella pneumoniae HK11750/08 after 48 hrs by broth microdilution method; assay type: functional; settings: HK11750/08, 48 h
[7] = tested on: Nakaseomyces glabratus; assay: Antifungal activity against Candida glabrata 20/I after 48 hrs by broth microdilution method; assay type: functional
[8] = tested on: Mycobacterium kansasii; assay: Antimycobacterial activity against Mycobacterium kansasii isolate 6509/96 after 21 days by micromethod; assay type: functional; settings: isolate 6509/96, 504 h
[9] = tested on: Escherichia coli; assay: Antibacterial activity against Escherichia coli ATCC 8739 after 48 hrs by broth microdilution method; assay type: functional; settings: ATCC 8739, 48 h
[10] = tested on: Klebsiella pneumoniae; assay: Antibacterial activity against Klebsiella pneumoniae HK11750/08 after 24 hrs by broth microdilution method; assay type: functional; settings: HK11750/08, 24 h
[11] = tested on: Mycobacterium kansasii; assay: Antimycobacterial activity against Mycobacterium kansasii isolate 6509/96 after 14 days by micromethod; assay type: functional; settings: isolate 6509/96, 336 h
[12] = tested on: Trichosporon asahii; assay: Antifungal activity against Trichosporon asahii 1188 after 48 hrs by broth microdilution method; assay type: functional; settings: Trichosporon asahii, 1188, 48 h
[13] = tested on: Staphylococcus aureus; assay: Antibacterial activity against methicillin-resistant Staphylococcus aureus HK5996/08 after 48 hrs by broth microdilution method; assay type: functional; settings: HK5996/08, 48 h
[14] = tested on: Candida tropicalis; assay: Antifungal activity against Candida tropicalis 156 after 24 hrs by broth microdilution method; assay type: functional; settings: Candida tropicalis, 156, 24 h
[15] = tested on: Trichosporon asahii; assay: Antifungal activity against Trichosporon asahii 1188 after 24 hrs by broth microdilution method; assay type: functional; settings: Trichosporon asahii, 1188, 24 h
[16] = tested on: Mycobacterium tuberculosis; assay: Antimycobacterial activity against Mycobacterium tuberculosis H37Rv CNCTC My 331/88 after 21 days by micromethod; assay type: functional; settings: H37Rv CNCTC My 331/88, 504 h
[17] = tested on: Enterococcus sp.; assay: Antibacterial activity against Enterococcus sp. HK14365/08 after 48 hrs by broth microdilution method; assay type: functional; settings: HK14365/08, 48 h
[18] = tested on: Mycobacterium tuberculosis; assay: Antimycobacterial activity against Mycobacterium tuberculosis H37Rv CNCTC My 331/88 after 14 days by micromethod; assay type: functional; settings: H37Rv CNCTC My 331/88, 336 h
[19] = tested on: Aspergillus fumigatus; assay: Antifungal activity against Aspergillus fumigatus 231 after 48 hrs by broth microdilution method; assay type: functional; settings: Aspergillus fumigatus, 231, 48 h
[20] = tested on: Pseudomonas aeruginosa; assay: Antibacterial activity against Pseudomonas aeruginosa ATCC 9027 after 48 hrs by broth microdilution method; assay type: functional; settings: ATCC 9027, 48 h
[21] = tested on: CHO-K1; assay: Cytotoxicity against CHOK1 cells after 24 hrs by MTT assay; assay type: cell-based; settings: Cricetulus griseus, CHO-K1, 24 h
[22] = tested on: Staphylococcus aureus; assay: Antibacterial activity against Staphylococcus aureus ATCC 6538 after 48 hrs by broth microdilution method; assay type: functional; settings: ATCC 6538, 48 h
[23] = tested on: Mycobacterium avium; assay: Antimycobacterial activity against Mycobacterium avium CNCTC My 330/80 after 14 days by micromethod; assay type: functional; settings: CNCTC My 330/80, 336 h
[24] = tested on: Candida tropicalis; assay: Antifungal activity against Candida tropicalis 156 after 48 hrs by broth microdilution method; assay type: functional; settings: Candida tropicalis, 156, 48 h
[25] = tested on: Enterococcus sp.; assay: Antibacterial activity against Enterococcus sp. HK14365/08 after 24 hrs by broth microdilution method; assay type: functional; settings: HK14365/08, 24 h
[26] = tested on: Pichia kudriavzevii; assay: Antifungal activity against Candida krusei E28 after 48 hrs by broth microdilution method; assay type: functional; settings: E28, 48 h
[27] = tested on: Staphylococcus aureus; assay: Antibacterial activity against methicillin-resistant Staphylococcus aureus HK5996/08 after 24 hrs by broth microdilution method; assay type: functional; settings: HK5996/08, 24 h
[28] = tested on: Staphylococcus epidermidis; assay: Antibacterial activity against Staphylococcus epidermidis HK6966/08 after 48 hrs by broth microdilution method; assay type: functional; settings: HK6966/08, 48 h
[29] = tested on: Mycobacterium kansasii; assay: Antimycobacterial activity against Mycobacterium kansasii CNCTC My 235/80 after 7 days by micromethod; assay type: functional; settings: CNCTC My 235/80, 168 h
[30] = tested on: Candida albicans; assay: Antifungal activity against Candida albicans ATCC 44859 after 48 hrs by broth microdilution method; assay type: functional; settings: ATCC 44859, 48 h
[31] = tested on: Candida albicans; assay: Antifungal activity against Candida albicans ATCC 44859 after 24 hrs by broth microdilution method; assay type: functional; settings: ATCC 44859, 24 h
[32] = tested on: Mycobacterium kansasii; assay: Antimycobacterial activity against Mycobacterium kansasii CNCTC My 235/80 after 21 days by micromethod; assay type: functional; settings: CNCTC My 235/80, 504 h
[33] = tested on: Trichophyton mentagrophytes; assay: Antifungal activity against Trichophyton mentagrophytes 445 after 72 hrs by broth microdilution method; assay type: functional; settings: Trichophyton mentagrophytes, 445, 72 h
[34] = tested on: Mycobacterium kansasii; assay: Antimycobacterial activity against Mycobacterium kansasii CNCTC My 235/80 after 14 days by micromethod; assay type: functional; settings: CNCTC My 235/80, 336 h
[35] = tested on: Staphylococcus aureus; assay: Antibacterial activity against Staphylococcus aureus ATCC 6538 after 24 hrs by broth microdilution method; assay type: functional; settings: ATCC 6538, 24 h
[36] = tested on: Pseudomonas aeruginosa; assay: Antibacterial activity against Pseudomonas aeruginosa ATCC 9027 after 24 hrs by broth microdilution method; assay type: functional; settings: ATCC 9027, 24 h
[37] = tested on: Mycobacterium kansasii; assay: Antimycobacterial activity against Mycobacterium kansasii isolate 6509/96 after 7 days by micromethod; assay type: functional; settings: isolate 6509/96, 168 h
[38] = tested on: Mycobacterium avium; assay: Antimycobacterial activity against Mycobacterium avium CNCTC My 330/80 after 21 days by micromethod; assay type: functional; settings: CNCTC My 330/80, 504 h
[39] = tested on: Klebsiella pneumoniae; assay: Antibacterial activity against extended spectrum beta-lactamase producing Klebsiella pneumoniae HK14368/08 after 48 hrs by broth microdilution method; assay type: functional; settings: HK14368/08, 48 h
[40] = tested on: Klebsiella pneumoniae; assay: Antibacterial activity against extended spectrum beta-lactamase producing Klebsiella pneumoniae HK14368/08 after 24 hrs by broth microdilution method; assay type: functional; settings: HK14368/08, 24 h
[41] = tested on: Staphylococcus epidermidis; assay: Antibacterial activity against Staphylococcus epidermidis HK6966/08 after 24 hrs by broth microdilution method; assay type: functional; settings: HK6966/08, 24 h
[42] = tested on: Lichtheimia corymbifera; assay: Antifungal activity against Absidia corymbifera 272 after 24 hrs by broth microdilution method; assay type: functional; settings: Lichtheimia corymbifera, 272, 24 h
[43] = tested on: Escherichia coli; assay: Antibacterial activity against Escherichia coli ATCC 8739 after 24 hrs by broth microdilution method; assay type: functional; settings: ATCC 8739, 24 h

O=[N+]([O-])c1cc(-c2nnn(Cc3cccc(Cl)c3)n2)cc([N+](=O)[O-])c1
27 µM: IC50 [21]
2 µM: MIC99 [8] | MIC99 [32] | MIC99 [34]
> 500 µM: MIC [1] | MIC [2] | MIC [3] | MIC [4] | MIC [5] | MIC [6] | MIC [7] | MIC [9] | MIC [10] | MIC [12] | MIC [13] | MIC [14] | MIC [15] | MIC [17] | MIC [19] | MIC [20] | MIC [22] | MIC [24] | MIC [25] | MIC [26] | MIC [27] | MIC [28] | MIC [30] | MIC [31] | MIC [33] | MIC [35] | MIC [36] | MIC [39] | MIC [40] | MIC [41] | MIC [42] | MIC [43]
4 µM: MIC99 [23]
8 µM: MIC99 [38]
1 µM: MIC99 [11] | MIC99 [29]
0.5 µM: MIC99 [16] | MIC99 [18] | MIC99 [37]
